Data reported in patent US11661437B2, “Steroid derivative regulators, method for preparing the same, and uses thereof” (priority 2018, dated 2023).
pIC50: −log10 of the molar value.

System: GABA-A receptor
Assay: 35S-TBPS binding assay on rat cerebral cortex cell membrane
Parameters: species or system Sprague-Dawley rat
Conditions: 2 nM 35S-TBPS, GABA added, read-out: 35S-TBPS bindng test, IC50 on inhibiting the TBPS binding activity
Protocol: 1.2.1 Extraction of Cerebral Cortex Cell Membrane:
1. The cerebral cortex of male Sprague-Dawley rat was isolated.
2. A pre-chilled 0.32 M sucrose solution (one tablet of protease inhibitor was added per 100 ml) was added to the cerebral cortex (the volume of sucrose solution was 10 times the volume of the cerebral cortex). The mixture was crushed with a 50 ml glass tissue homogenizer in batches and mixed well.
3. The mixture was centrifuged at 1500 g, 4° C. for 10 minutes, and the supernatant was collected.
4. The mixture was centrifuged at 20000 g, 4° C. for 30 minutes, and the supernatant was discarded.
5. The precipitate was resuspended with the pre-chilled phosphate buffer saline (PBS) (one tablet of protease inhibitor was added per 100 ml). An average of 4 ml of PBS was added per rat, and the mixture was mixed well with a glass tissue homogenizer.
6. The mixture was centrifuged at 10000 g, 4° C. for 10 minutes, and the supernatant was discarded.
7. Steps 5 and 6 were repeated three times.
8. Finally, the precipitate was resuspended with 4 volumes of PBS. The resulting solution was dispensed, frozen in liquid nitrogen, and stored at −80° C.
9. The protein concentration was measured by the bicinchoninic acid (BCA) method.
1.2.2 ^35S-TBPS Binding Assay
1. 230 μL of PBS was added to each well of a well plate with 1.1 ml volume.
2. 60 μL of the cerebral cortex cell membrane (5 μg/μL) solution was added to each well, and the mixture was mixed well.
3. The test compound (3 μL per well) was added, and the plate was incubated at 25° C. for 5 minutes. The DMSO concentration was 1%. The initial compound concentration was 1 NM, and a 3-fold dilution in gradient was carried out to obtain a total of 8 gradients and 2 replicates. 1% DMSO was used as a negative control, and 10 μM P026-2 was used as a positive control.
4. GABA was added at a final concentration of […], and incubated at 25° C. for 5 minutes. 1 mM GABA solution was formulated, and 1.5 μL of the solution was added to each well.
5. ^35S-TBPS was added at a final concentration of 2 nM. The concentration of isotope mother solution was 9.7 μM. After dilution with PBS for 100 times, 6 μL of the diluted isotope solution was added to each well.
6. The plate was incubated at 4° C. for 20 hours.
7. The FilterMate GF/C plate was pre-treated with 0.5% PEI, and incubated at 4° C. for 1 hour.
8. The FilterMate GF/C plate was washed with Universal Harvester twice, 50 ml PBS each time.
9. The reaction solution was transferred to the GF/C plate, and each well was washed 4 times with 900 μL PBS.
10. The washed GF/C plate was placed at 55° C. and dried for 10 minutes.
11. 40 μL of scintillation solution was added to each well, and the CPM value was read with TopCount.
1.2.3 Experimental Data Processing Method:
In the experiment, the CPM (counts per minute) value was read with TopCount. According to the readings of the High control (DMSO) and the Low control (10 μM of the positive compound) experimental groups, the % inhibition was calculated based on the following formula: % Inhibition=100×(CPMHigh control−CPMSample)/(CPMHigh control−CPMLow control)
The IC50 of the compound was calculated according to the following 4-parameter nonlinear logic formula: Y=Bottom+(Top−Bottom)/(1+10^((Log IC50−X)*Hill Slope)),
The effect of the compound of the present invention on the TBPS binding activity was determined by the above test, and the measured IC50 values are shown in Table 1.

Compound	pIC50
C[C@@]1(O)CC[C@@]2(F)[C@H](CC[C@H]3[C@@H]4CC[C@H](C(=O)COc5ccc(F)cc5F)[C@@]4(C)CC[C@@H]32)C1 [Example 36, 2-(2,4-Difluorophenoxy)-1-((3R,5R,8S,9S,10R,13S,14S,17S)-10-fluoro-3-hydroxy-3,13-dimethylhexadecahydro-1H-cyclopenta[a]phenanthren-17-yl)ethan-1-one]	7.86
C[C@@]1(O)CC[C@@]2(F)[C@H](CC[C@H]3[C@@H]4CC[C@H](C(=O)Cn5cc(Cl)cn5)[C@@]4(C)CC[C@@H]32)C1 [Example 37, 2-(4-Chloro-1H-pyrazol-1-yl)-1-((3R,5R,8S,9S,10R,13S,14S,17S)-10-fluoro-3-hydroxy-3,13-dimethylhexadecahydro-1H-cyclopenta[a]phenanthren-17-yl)ethan-1-one]	7.77
C[C@@]1(O)CC[C@@]2(F)[C@H](CC[C@H]3[C@@H]4CC[C@H](C(=O)Cn5nnc6ccc(F)cc65)[C@@]4(C)CC[C@@H]32)C1 [Example 19, 2-(6-Fluoro-1H-benzo[d][1,2,3]triazol-1-yl)-1-((3R,5R,8S,9S,10R,13S,14S,17S)-10-fluoro-3-hydroxy-3,13-dimethylhexadecahydro-1H-cyclopenta[a]phenanthren-17-yl)ethan-1-one]	7.82
Cc1cnn(CC(=O)[C@H]2CC[C@H]3[C@@H]4CC[C@@H]5C[C@](C)(O)CC[C@]5(F)[C@H]4CC[C@]23C)c1 [Example 11, 1-((3R,5R,8S,9S,10R,13S,14S,17S)-10-Fluoro-3-hydroxy-3,13-dimethylhexadecahydro-1H-cyclopenta[a]phenanthren-17-yl)-2-(4-methyl-1H-pyrazol-1-yl)ethan-1-one]	7.38
C[C@@]1(O)CC[C@@]2(F)[C@H](CC[C@H]3[C@@H]4CC[C@H](C(=O)Cn5cc6ccncc6n5)[C@@]4(C)CC[C@@H]32)C1 [Example 16, 1-((3R,5R,8S,9S,10R,13S,14S,17S)-10-Fluoro-3-hydroxy-3,13-dimethylhexadecahydro-1H-cyclopenta[a]phenanthren-17-yl)-2-(2H-pyrazolo[3,4-c]pyridin-2-yl)ethan-1-one]	7.40
C[C@@]1(O)CC[C@@]2(F)[C@H](CC[C@H]3[C@@H]4CC[C@H](C(=O)CNc5cnoc5)[C@@]4(C)CC[C@@H]32)C1 [Example 45, 1-((3R,5R,8S,9S,10R,13S,14S,17S)-10-Fluoro-3-hydroxy-3,13-dimethylhexadecahydro-1H-cyclopenta[a]phenanthren-17-yl)-2-(isoxazol-4-ylamino)ethan-1-one]	7.46
C[C@@]1(O)CC[C@@]2(F)[C@H](CC[C@H]3[C@@H]4CC[C@H](C(=O)COc5cncnc5)[C@@]4(C)CC[C@@H]32)C1 [Example 49, 1-((3R,5R,8S,9S,10R,13S,14S,17S)-10-Fluoro-3-hydroxy-3,13-dimethylhexadecahydro-1H-cyclopenta[a]phenanthren-17-yl)-2-(pyrimidin-5-yloxy)ethan-1-one]	7.32
C[C@@]1(O)CC[C@@]2(F)[C@H](CC[C@H]3[C@@H]4CC[C@H](C(=O)CNc5ccccc5F)[C@@]4(C)CC[C@@H]32)C1 [Example 24, 1-((3R,5R,8S,9S,10R,13S,14S,17S)-10-Fluoro-3-hydroxy-3,13-dimethylhexadecahydro-1H-cyclopenta[a]phenanthren-17-yl)-2-((2-fluorophenyl)amino)ethan-1-one]	7.99
C[C@@]1(O)CC[C@@]2(F)[C@H](CC[C@H]3[C@@H]4CC[C@H](C(=O)Cn5cc6c(n5)CCCC6)[C@@]4(C)CC[C@@H]32)C1 [Example 21, 1-((3R,5R,8S,9S,10R,13S,14S,17S)-10-Fluoro-3-hydroxy-3,13-dimethylhexadecahydro-1H-cyclopenta[a]phenanthren-17-yl)-2-(4,5,6,7-tetrahydro-2H-indazol-2-yl)ethan-1-one]	7.44
C[C@@]1(O)CC[C@@]2(F)[C@H](CC[C@H]3[C@@H]4CC[C@H](C(=O)Cn5nccn5)[C@@]4(C)CC[C@@H]32)C1 [Example 10, 1-((3R,5R,8S,9S,10R,13S,14S,17S)-10-Fluoro-3-hydroxy-3,13-dimethylhexadecahydro-1H-cyclopenta[a]phenanthren-17-yl)-2-(2H-1,2,3-triazol-2-yl)ethan-1-one]	8.28
C[C@@]1(O)CC[C@]2(F)C3CC[C@]4(C)[C@@H](C(=O)Cn5cc(C6CC6)nn5)CC[C@H]4[C@@H]3CC[C@@H]2C1 (stereo partly drawn) [Example 64, 2-(4-Cyclopropyl-1H-1,2,3-triazol-1-yl)-1-((3R,5R,8S,10R,13S,14S,17S)-10-fluoro-3-hydroxy-3,13-dimethylhexadecahydro-1H-cyclopenta[a]phenanthren-17-yl)ethan-1-one]	7.61
C[C@@]1(O)CC[C@@]2(F)[C@H](CC[C@H]3[C@@H]4CC[C@H](C(=O)Cn5cc(-c6ncco6)cn5)[C@@]4(C)CC[C@@H]32)C1 [Example 52, 1-((3R,5R,8S,9S,10R,13S,14S,17S)-10-Fluoro-3-hydroxy-3,13-dimethylhexadecahydro-1H-cyclopenta[a]phenanthren-17-yl)-2-(4-(oxazol-2-yl)-1H-pyrazol-1-yl)ethan-1-one]	7.64
C[C@@]1(O)CC[C@@]2(F)[C@H](CC[C@H]3[C@@H]4CC[C@H](C(=O)Cn5cc(C#N)c(C6CC6)n5)[C@@]4(C)CC[C@@H]32)C1 [Example 40, 3-Cyclopropyl-1-(2-((3R,5R,8S,9S,10R,13S,14S,17S)-10-fluoro-3-hydroxy-3,13-dimethylhexadecahydro-1H-cyclopenta[a]phenanthren-17-yl)-2-oxoethyl)-1H-pyrazole-4-carbonitrile]	7.92
C[C@@]1(O)CC[C@@]2(F)[C@H](CC[C@H]3[C@@H]4CC[C@H](C(=O)COc5ccc(C#N)cc5F)[C@@]4(C)CC[C@@H]32)C1 [Example 31, 3-Fluoro-4-(2-((3R,5R,8S,9S,10R,13S,14S,17S)-10-fluoro-3-hydroxy-3,13-dimethylhexadecahydro-1H-cyclopenta[a]phenanthren-17-yl)-2-oxoethoxy)benzonitrile]	7.95
C[C@@]1(O)CC[C@@]2(F)[C@H](CC[C@H]3[C@@H]4CC[C@H](C(=O)COc5ccc(F)cc5C#N)[C@@]4(C)CC[C@@H]32)C1 [Example 30, 5-Fluoro-2-(2-((3R,5R,8S,9S,10R,13S,14S,17S)-10-fluoro-3-hydroxy-3,13-dimethylhexadecahydro-1H-cyclopenta[a]phenanthren-17-yl)-2-oxoethoxy)benzonitrile]	8.14
